System: J774.A1
Test: Inhibition of TNFalpha secretion in mouse J774A.1 cells at 20 uM after 24 hrs by ELISA; values are per cent of control
Conditions: J774.A1, 24 h

| SMILES | level, % of control at 20 µM [%] |
| --- | --- |
| C[C@@]12COS(=O)O[C@@H]1CC[C@@]1(C)C3CC(C4=CCOC4=O)O[C@]3(C)CC[C@H]21 (stereo partly drawn) | 61.8 |
| CCCCCC(=O)O[C@@H]1CC[C@@]2(C)C3CC(C4=CCOC4=O)O[C@]3(C)CC[C@@H]2[C@]1(C)CO (stereo partly drawn) | 44.4 |
| C=C1CC[C@@H]2[C@](C)(CO)[C@H](O)CC[C@@]2(C)[C@@H]1CC(OC(=O)CC)C1=CCOC1=O (stereo partly drawn) | 70 |
| C=C1CC[C@@H]2[C@](C)(CO)[C@H](O)CC[C@@]2(C)[C@@H]1CC(OC(=O)CCCCC)C1=CCOC1=O (stereo partly drawn) | 79.6 |
| C=C1CC[C@@H]2[C@](C)(CO)[C@H](O)CC[C@@]2(C)[C@@H]1CC(OC(=O)c1ccccc1)C1=CCOC1=O (stereo partly drawn) | 92.9 |
| C=C1CC[C@@H]2[C@](C)(CO)[C@H](O)CC[C@@]2(C)[C@@H]1CC(OC(=O)c1ccc(C)cc1)C1=CCOC1=O (stereo partly drawn) | 152 |
| C=C1CC[C@@H]2[C@](C)(CO)[C@H](O)CC[C@@]2(C)[C@@H]1CC(OC(=O)C/C=C/c1ccc2c(c1)OCO2)C1=CCOC1=O (stereo partly drawn) | 149 |
| CCC(=O)OC[C@@]1(C)[C@H]2CC[C@@]3(C)OC(C4=CCOC4=O)CC3[C@]2(C)CC[C@H]1OC(=O)CC (stereo partly drawn) | 82.8 |
| C[C@]1(COC(=O)C(=O)CCC(=O)O)[C@H]2CC[C@@]3(C)OC(C4=CCOC4=O)CC3[C@]2(C)CC[C@H]1OC(=O)C(=O)CCC(=O)O (stereo partly drawn) | 81.7 |
| C=C1CC[C@@H]2[C@](C)(CO)[C@H](O)CC[C@@]2(C)[C@@H]1CC(OC(C)=O)C1=CCOC1=O (stereo partly drawn) | 107 |
| CCCCCC(=O)OC[C@@]1(C)[C@H]2CC[C@@]3(C)OC(C4=CCOC4=O)CC3[C@]2(C)CC[C@H]1OC(=O)CCCCC (stereo partly drawn) | 35.7 |
| C=C1CC[C@@H]2[C@](C)(CO)[C@H](O)CC[C@@]2(C)[C@@H]1CC(OC(=O)c1ccc([N+](=O)[O-])cc1)C1=CCOC1=O (stereo partly drawn) | 65.8 |
| C[C@]1(COC=O)[C@H]2CC[C@@]3(C)OC(C4=CCOC4=O)CC3[C@]2(C)CC[C@H]1OC(=O)c1ccccc1 (stereo partly drawn) | 28.5 |
| C=C1CC[C@@H]2[C@](C)(CO)[C@H](O)CC[C@@]2(C)[C@@H]1CC(OC(=O)c1cc2c(cc1[N+](=O)[O-])OCO2)C1=CCOC1=O (stereo partly drawn) | 115 |
| CC(=O)OC[C@@]1(C)[C@H]2CC[C@@]3(C)OC(C4=CCOC4=O)CC3[C@]2(C)CC[C@H]1OC(C)=O (stereo partly drawn) | 80 |
| C[C@]1(COC(=O)c2ccccc2)[C@H]2CC[C@@]3(C)OC(C4=CCOC4=O)CC3[C@]2(C)CC[C@H]1OC(=O)c1ccccc1 (stereo partly drawn) | 204 |
| C=C1CC[C@@H]2[C@](C)(CO)[C@H](O)CC[C@@]2(C)[C@@H]1C/C=C1/C(=O)OC[C@H]1O [ANDROGRAPHOLIDE] | 63.9 |

System: J774.A1
Test: IL6 secretion in mouse J774A.1 cells at 20 uM after 24 hrs by ELISA
Conditions: J774.A1, 24 h

| SMILES | % of control at 20 µM [%] |
| --- | --- |
| C[C@@]12COS(=O)O[C@@H]1CC[C@@]1(C)C3CC(C4=CCOC4=O)O[C@]3(C)CC[C@H]21 (stereo partly drawn) | 79.7 |
| CCCCCC(=O)O[C@@H]1CC[C@@]2(C)C3CC(C4=CCOC4=O)O[C@]3(C)CC[C@@H]2[C@]1(C)CO (stereo partly drawn) | 69.8 |
| C=C1CC[C@@H]2[C@](C)(CO)[C@H](O)CC[C@@]2(C)[C@@H]1CC(OC(=O)CC)C1=CCOC1=O (stereo partly drawn) | 82.6 |
| C=C1CC[C@@H]2[C@](C)(CO)[C@H](O)CC[C@@]2(C)[C@@H]1CC(OC(=O)CCCCC)C1=CCOC1=O (stereo partly drawn) | 82.9 |
| C=C1CC[C@@H]2[C@](C)(CO)[C@H](O)CC[C@@]2(C)[C@@H]1CC(OC(=O)c1ccccc1)C1=CCOC1=O (stereo partly drawn) | 82 |
| C=C1CC[C@@H]2[C@](C)(CO)[C@H](O)CC[C@@]2(C)[C@@H]1CC(OC(=O)c1ccc(C)cc1)C1=CCOC1=O (stereo partly drawn) | 128 |
| C=C1CC[C@@H]2[C@](C)(CO)[C@H](O)CC[C@@]2(C)[C@@H]1CC(OC(=O)C/C=C/c1ccc2c(c1)OCO2)C1=CCOC1=O (stereo partly drawn) | 96 |
| CCC(=O)OC[C@@]1(C)[C@H]2CC[C@@]3(C)OC(C4=CCOC4=O)CC3[C@]2(C)CC[C@H]1OC(=O)CC (stereo partly drawn) | 60.5 |
| C[C@]1(COC(=O)C(=O)CCC(=O)O)[C@H]2CC[C@@]3(C)OC(C4=CCOC4=O)CC3[C@]2(C)CC[C@H]1OC(=O)C(=O)CCC(=O)O (stereo partly drawn) | 55 |
| C=C1CC[C@@H]2[C@](C)(CO)[C@H](O)CC[C@@]2(C)[C@@H]1CC(OC(C)=O)C1=CCOC1=O (stereo partly drawn) | 95.1 |
| CCCCCC(=O)OC[C@@]1(C)[C@H]2CC[C@@]3(C)OC(C4=CCOC4=O)CC3[C@]2(C)CC[C@H]1OC(=O)CCCCC (stereo partly drawn) | 31.4 |
| C=C1CC[C@@H]2[C@](C)(CO)[C@H](O)CC[C@@]2(C)[C@@H]1CC(OC(=O)c1ccc([N+](=O)[O-])cc1)C1=CCOC1=O (stereo partly drawn) | 58.6 |
| C[C@]1(COC=O)[C@H]2CC[C@@]3(C)OC(C4=CCOC4=O)CC3[C@]2(C)CC[C@H]1OC(=O)c1ccccc1 (stereo partly drawn) | 27.7 |
| C=C1CC[C@@H]2[C@](C)(CO)[C@H](O)CC[C@@]2(C)[C@@H]1CC(OC(=O)c1cc2c(cc1[N+](=O)[O-])OCO2)C1=CCOC1=O (stereo partly drawn) | 70.1 |
| CC(=O)OC[C@@]1(C)[C@H]2CC[C@@]3(C)OC(C4=CCOC4=O)CC3[C@]2(C)CC[C@H]1OC(C)=O (stereo partly drawn) | 72.9 |
| C[C@]1(COC(=O)c2ccccc2)[C@H]2CC[C@@]3(C)OC(C4=CCOC4=O)CC3[C@]2(C)CC[C@H]1OC(=O)c1ccccc1 (stereo partly drawn) | 48.2 |
| C=C1CC[C@@H]2[C@](C)(CO)[C@H](O)CC[C@@]2(C)[C@@H]1C/C=C1/C(=O)OC[C@H]1O [ANDROGRAPHOLIDE] | 49.2 |

System: J774.A1
Test: Inhibition of LPS-induced IL6 secretion in mouse J774A.1 cells at 20 uM after 24 hrs by ELISA; values are per cent of control
Conditions: J774.A1, 24 h

| SMILES | level, % of control at 20 µM [%] |
| --- | --- |
| C[C@@]12COS(=O)O[C@@H]1CC[C@@]1(C)C3CC(C4=CCOC4=O)O[C@]3(C)CC[C@H]21 (stereo partly drawn) | 208 |
| CCCCCC(=O)O[C@@H]1CC[C@@]2(C)C3CC(C4=CCOC4=O)O[C@]3(C)CC[C@@H]2[C@]1(C)CO (stereo partly drawn) | 102 |
| C=C1CC[C@@H]2[C@](C)(CO)[C@H](O)CC[C@@]2(C)[C@@H]1CC(OC(=O)CC)C1=CCOC1=O (stereo partly drawn) | 74.7 |
| C=C1CC[C@@H]2[C@](C)(CO)[C@H](O)CC[C@@]2(C)[C@@H]1CC(OC(=O)CCCCC)C1=CCOC1=O (stereo partly drawn) | 46.6 |
| C=C1CC[C@@H]2[C@](C)(CO)[C@H](O)CC[C@@]2(C)[C@@H]1CC(OC(=O)c1ccccc1)C1=CCOC1=O (stereo partly drawn) | 37.5 |
| C=C1CC[C@@H]2[C@](C)(CO)[C@H](O)CC[C@@]2(C)[C@@H]1CC(OC(=O)c1ccc(C)cc1)C1=CCOC1=O (stereo partly drawn) | 32.1 |
| C=C1CC[C@@H]2[C@](C)(CO)[C@H](O)CC[C@@]2(C)[C@@H]1CC(OC(=O)C/C=C/c1ccc2c(c1)OCO2)C1=CCOC1=O (stereo partly drawn) | 56.9 |
| CCC(=O)OC[C@@]1(C)[C@H]2CC[C@@]3(C)OC(C4=CCOC4=O)CC3[C@]2(C)CC[C@H]1OC(=O)CC (stereo partly drawn) | 110 |
| C[C@]1(COC(=O)C(=O)CCC(=O)O)[C@H]2CC[C@@]3(C)OC(C4=CCOC4=O)CC3[C@]2(C)CC[C@H]1OC(=O)C(=O)CCC(=O)O (stereo partly drawn) | 114 |
| C=C1CC[C@@H]2[C@](C)(CO)[C@H](O)CC[C@@]2(C)[C@@H]1CC(OC(C)=O)C1=CCOC1=O (stereo partly drawn) | 44.7 |
| CCCCCC(=O)OC[C@@]1(C)[C@H]2CC[C@@]3(C)OC(C4=CCOC4=O)CC3[C@]2(C)CC[C@H]1OC(=O)CCCCC (stereo partly drawn) | 85.2 |
| C=C1CC[C@@H]2[C@](C)(CO)[C@H](O)CC[C@@]2(C)[C@@H]1CC(OC(=O)c1ccc([N+](=O)[O-])cc1)C1=CCOC1=O (stereo partly drawn) | 29.2 |
| C[C@]1(COC=O)[C@H]2CC[C@@]3(C)OC(C4=CCOC4=O)CC3[C@]2(C)CC[C@H]1OC(=O)c1ccccc1 (stereo partly drawn) | 85.7 |
| C=C1CC[C@@H]2[C@](C)(CO)[C@H](O)CC[C@@]2(C)[C@@H]1CC(OC(=O)c1cc2c(cc1[N+](=O)[O-])OCO2)C1=CCOC1=O (stereo partly drawn) | 44.6 |
| CC(=O)OC[C@@]1(C)[C@H]2CC[C@@]3(C)OC(C4=CCOC4=O)CC3[C@]2(C)CC[C@H]1OC(C)=O (stereo partly drawn) | 150 |
| C[C@]1(COC(=O)c2ccccc2)[C@H]2CC[C@@]3(C)OC(C4=CCOC4=O)CC3[C@]2(C)CC[C@H]1OC(=O)c1ccccc1 (stereo partly drawn) | 107 |
| C=C1CC[C@@H]2[C@](C)(CO)[C@H](O)CC[C@@]2(C)[C@@H]1C/C=C1/C(=O)OC[C@H]1O [ANDROGRAPHOLIDE] | 56 |

System: J774.A1
Test: Inhibition of LPS-induced TNFalpha secretion in mouse J774A.1 cells at 20 uM after 24 hrs by ELISA; values are per cent of control
Conditions: J774.A1, 24 h

| SMILES | level, % of control at 20 µM [%] |
| --- | --- |
| C[C@@]12COS(=O)O[C@@H]1CC[C@@]1(C)C3CC(C4=CCOC4=O)O[C@]3(C)CC[C@H]21 (stereo partly drawn) | 231 |
| CCCCCC(=O)O[C@@H]1CC[C@@]2(C)C3CC(C4=CCOC4=O)O[C@]3(C)CC[C@@H]2[C@]1(C)CO (stereo partly drawn) | 106 |
| C=C1CC[C@@H]2[C@](C)(CO)[C@H](O)CC[C@@]2(C)[C@@H]1CC(OC(=O)CC)C1=CCOC1=O (stereo partly drawn) | 96.9 |
| C=C1CC[C@@H]2[C@](C)(CO)[C@H](O)CC[C@@]2(C)[C@@H]1CC(OC(=O)CCCCC)C1=CCOC1=O (stereo partly drawn) | 76 |
| C=C1CC[C@@H]2[C@](C)(CO)[C@H](O)CC[C@@]2(C)[C@@H]1CC(OC(=O)c1ccccc1)C1=CCOC1=O (stereo partly drawn) | 60.8 |
| C=C1CC[C@@H]2[C@](C)(CO)[C@H](O)CC[C@@]2(C)[C@@H]1CC(OC(=O)c1ccc(C)cc1)C1=CCOC1=O (stereo partly drawn) | 41.6 |
| C=C1CC[C@@H]2[C@](C)(CO)[C@H](O)CC[C@@]2(C)[C@@H]1CC(OC(=O)C/C=C/c1ccc2c(c1)OCO2)C1=CCOC1=O (stereo partly drawn) | 61 |
| CCC(=O)OC[C@@]1(C)[C@H]2CC[C@@]3(C)OC(C4=CCOC4=O)CC3[C@]2(C)CC[C@H]1OC(=O)CC (stereo partly drawn) | 115 |
| C[C@]1(COC(=O)C(=O)CCC(=O)O)[C@H]2CC[C@@]3(C)OC(C4=CCOC4=O)CC3[C@]2(C)CC[C@H]1OC(=O)C(=O)CCC(=O)O (stereo partly drawn) | 129 |
| C=C1CC[C@@H]2[C@](C)(CO)[C@H](O)CC[C@@]2(C)[C@@H]1CC(OC(C)=O)C1=CCOC1=O (stereo partly drawn) | 62.7 |
| CCCCCC(=O)OC[C@@]1(C)[C@H]2CC[C@@]3(C)OC(C4=CCOC4=O)CC3[C@]2(C)CC[C@H]1OC(=O)CCCCC (stereo partly drawn) | 43.8 |
| C=C1CC[C@@H]2[C@](C)(CO)[C@H](O)CC[C@@]2(C)[C@@H]1CC(OC(=O)c1ccc([N+](=O)[O-])cc1)C1=CCOC1=O (stereo partly drawn) | 60 |
| C[C@]1(COC=O)[C@H]2CC[C@@]3(C)OC(C4=CCOC4=O)CC3[C@]2(C)CC[C@H]1OC(=O)c1ccccc1 (stereo partly drawn) | 36.5 |
| C=C1CC[C@@H]2[C@](C)(CO)[C@H](O)CC[C@@]2(C)[C@@H]1CC(OC(=O)c1cc2c(cc1[N+](=O)[O-])OCO2)C1=CCOC1=O (stereo partly drawn) | 94.4 |
| CC(=O)OC[C@@]1(C)[C@H]2CC[C@@]3(C)OC(C4=CCOC4=O)CC3[C@]2(C)CC[C@H]1OC(C)=O (stereo partly drawn) | 99.4 |
| C[C@]1(COC(=O)c2ccccc2)[C@H]2CC[C@@]3(C)OC(C4=CCOC4=O)CC3[C@]2(C)CC[C@H]1OC(=O)c1ccccc1 (stereo partly drawn) | 294 |
| C=C1CC[C@@H]2[C@](C)(CO)[C@H](O)CC[C@@]2(C)[C@@H]1C/C=C1/C(=O)OC[C@H]1O [ANDROGRAPHOLIDE] | 62.5 |

From ChEMBL document CHEMBL1140579, “Synthesis of andrographolide derivatives and their TNF-alpha and IL-6 expression inhibitory activities” (2007)
